Here are results for 2 substances from publication PMC10587126, “Molecular hybridization strategy for tuning bioactive peptide function” (Communications Biology, 2023).

Read-outs that look alike come from different tables or passages of the source. No end group written: not given here.

Data set [1] relates to human erythrocytes. As to the kind of experiment: Hemolytic activity. The conditions noted are these: 0.1–100 μmol L^−1 in PBS, room temperature, 1 h, absorbance 405 nm. The format is cell-based.
Data set [2] in a line: Resistance to proteolytic degradation in fetal bovine serum. The format is in vitro ADME. The conditions noted are these: 25% fetal bovine serum in water, 37 °C. Put shortly:
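Peptide was incubated at 37 °C in fetal bovine serum diluted to 25% in water, with aliquots taken at 0, 0.5, 1, 2, 4 and 6 h. The percentage of peptide remaining was measured by liquid chromatography peak-area integration. Three independent replicates were run.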

The nature of data set [3]: Mouse body weight in the skin abscess infection model. The format is in vivo.
Data set [4] in a line: Skin tissue histopathological analysis (H&E). Type of data set: in vivo, mouse. The note with it: H&E staining, tissue collected 24 h after infection and treatment, three mice per condition. The protocol: The fur on the back of the mice was removed and the mice were infected and treated as described in the Skin abscess infection mouse model section. After 24 h, mice were euthanized for tissue collection. Samples were pre-fixed in individual cassettes, then transferred to a container filled with 70% ethanol (EtOH) for slicing and staining. Next, the samples were placed on glass slides for microscopy analysis. We collected the tissue from three mice per condition analyzed.

For data set [5], the system named is human erythrocytes. The note with it: at 100 µmol L^−1; cited from earlier work. An excerpt:
These observations are consistent with our results for PV, which incorporated protonectin’s hydrophobic face (Fig. 2) displaying increased antimicrobial activity than VP (Fig. 3). Additi ...

[6] abbreviates: LC peak area, time 0 = 100, 0.5 h, replicate 3.
Where [7] appears, read: LC peak area, time 0 = 100, 1 h, replicate 3.
Setting [8] is: LC peak area, time 0 = 100, 2 h, replicate 3.
The mark [9] stands for this setting: LC peak area, time 0 = 100, 4 h, replicate 1.
Where [10] appears, read: LC peak area, time 0 = 100, 4 h, replicate 2.
Where [11] appears, read: LC peak area, time 0 = 100, 6 h, replicate 1.
Where [12] appears, read: LC peak area, time 0 = 100, 6 h, replicate 2.
The mark [13] stands for this setting: LC peak area, time 0 = 100, 6 h, replicate 3.

The fraction remaining is what is left of the initial amount, in per cent. Take FLGAIGNVLKSIL-NH2 [TV]: the “Hemolytic activity (concentration of peptide needed to kill 10% of red blood cells)” value in data set [1] stood at 0.2 µmol/L. In data set [2] (LC peak area vs time 0, 30 min, three replicates), the “Peptide remaining after 30 min” value was “totally degraded”. Further, the Peptide remaining in data set [2] (LC peak area, time 0 = 100, 0.5 h, replicate 1) was 0; in data set [2] (LC peak area, time 0 = 100, 0.5 h, replicate 2), 0; in data set [2] (setting [6]), 0; in data set [2] (LC peak area, time 0 = 100, 1 h, replicate 1) it was 0; in data set [2] (LC peak area, time 0 = 100, 1 h, replicate 2), 0; in data set [2] (setting [7]), 0. Moreover, the Peptide remaining in data set [2] (LC peak area, time 0 = 100, 2 h, replicate 1) was 0; in data set [2] (LC peak area, time 0 = 100, 2 h, replicate 2), 0; in data set [2] (setting [8]), 0; in data set [2] (setting [9]), 0; in data set [2] (setting [10]), 0; in data set [2] (setting [11]), 0. In addition, the Peptide remaining in data set [2] (setting [12]) and in data set [2] (setting [13]) was 0 in each case. The fraction remaining at 4 h in data set [2] (fetal bovine serum, 25% in water, LC peak area, time 0 = 100, 4 h, replicate 3, read-out: Peptide remaining) was found to be 0%. The “Mouse body weight, normalized to the weight at the beginning of the experiment” value in data set [3] (day 0 = 100, Day 1, replicate 1) worked out at 90; in data set [3] (day 0 = 100, Day 1, replicate 2), 90; in data set [3] (day 0 = 100, Day 1, replicate 3), 100; in data set [3] (day 0 = 100, Day 2, replicate 1), 90; in data set [3] (day 0 = 100, Day 2, replicate 2), 95; in data set [3] (day 0 = 100, Day 2, replicate 3) it was 100. In addition, the “Mouse body weight, normalized to the weight at the beginning of the experiment” value in data set [3] (day 0 = 100, Day 3, replicate 1) is 90; in data set [3] (day 0 = 100, Day 3, replicate 2) it was 95; in data set [3] (day 0 = 100, Day 3, replicate 3) it was 105; in data set [3] (day 0 = 100, Day 4, replicate 1) it was 85; in data set [3] (day 0 = 100, Day 4, replicate 2), 95; in data set [3] (day 0 = 100, Day 4, replicate 3) it was 100. In data set [4], the “Histopathological effect on skin tissue (in words)” value was “Neither TV nor VmCT1 changed the tissue’s morphology”.

As for “SLLSLIRKLIT-NH2 [Decoralin, reference compound]”, the “Hemolytic activity (concentration of peptide needed to kill 10% of red blood cells)” value in data set [1] was determined as 1.6 µmol/L. Further, the Peptide remaining in data set [2] (setting [6]) is 0.0; in data set [2] (setting [7]), 0.0; in data set [2] (setting [8]), 0.0; in data set [2] (setting [9]) it was 0.0; in data set [2] (setting [10]), 0.0; in data set [2] (LC peak area, time 0 = 100, 4 h, replicate 3), 0.0. For the same substance, the Peptide remaining in data set [2] (setting [11]), in data set [2] (setting [12]) and in data set [2] (setting [13]) was 0.0 throughout. The share remaining at 0.5 h came to 71% in data set [2] (fetal bovine serum, 25% in water, LC peak area, time 0 = 100, 0.5 h, replicate 1, read-out: Peptide remaining) and 65% in data set [2] (fetal bovine serum, 25% in water, LC peak area, time 0 = 100, 0.5 h, replicate 2, read-out: Peptide remaining). Further, the amount remaining at 1 h worked out at 26% in data set [2] (fetal bovine serum, 25% in water, LC peak area, time 0 = 100, 1 h, replicate 1, read-out: Peptide remaining) and 23% in data set [2] (fetal bovine serum, 25% in water, LC peak area, time 0 = 100, 1 h, replicate 2, read-out: Peptide remaining). Moreover, the share remaining at 2 h amounted to 29% in data set [2] (fetal bovine serum, 25% in water, LC peak area, time 0 = 100, 2 h, replicate 1, read-out: Peptide remaining) and 23% in data set [2] (fetal bovine serum, 25% in water, LC peak area, time 0 = 100, 2 h, replicate 2, read-out: Peptide remaining). For the same substance, the “Hemolytic activity (in words)” value in data set [5] is given as “low hemolytic activity”.
